Drawing on patent publication US7576071B2, “Antithrombotic compound” (sanofi-aventis, priority 2004, dated 2009), this text covers IC50 and Anti-Xa activity for one substance.

What is called IC50 is the concentration that gives 50% inhibition.

Series [1] deals with human platelets (platelet rich plasma), ADP-induced aggregation. The experiment in a line: In vitro test for inhibition of human platelet aggregation induced by ADP. The class given is cell-based. Conditions: 5 μM ADP; human PRP; mean of n experiments; entries marked b measured with a Chronolog aggregometer, others with micro plate reader; read-out: Inhibition of ADP-induced (5 μM) human platelet aggregation (IC50), mean. The text has this: I.a. In vitro Test for Inhibition of Human Platelet Aggregation Induced by ADP
Addition of adenosine diphosphate (ADP) to human platelet rich plasma (PRP) in vitro induces platelet aggregation. This aggregation can be assessed by measuring the optical density (OD) of the PRP. The in vitro test described here was used to determine the inhibitory activity of a test compound on the ADP-induced aggregation of human platelets. A micro plate reader is used to measure the activity of several compounds simultaneously.
An alternative vehicle is 0.9% NaCl in MQ H2O. The compound solution (either in MQ H2O or 0.9% NaCl in MQ H2O) is further diluted in 0.9% NaCl in MQ H2O.
Free-flowing blood (at least 100 mL) is taken from a healthy volunteer and collected in 0.1 volume 3.8% sodium citrate. 2H2O in distilled H2O (w/v). The final concentration is 0.38% sodium citrate.
The citrated blood is centrifuged at 1,600 N/kg (160 g) at RT. After 15 min, centrifugation is discontinued with the brake turned off and the supernatant (=PRP) is collected. • 2. ADP (Kordia/Chrono-par # 384). Before use, a solution of 50 μM in 0.9% NaCl is prepared. Equipment • 1. Sysmex blood cell counter model KX-21. • 2. Labsystems iEMS reader MF with a 620 nm filter, an orbital shaker set at 1,000 rpm and a constant temperature of 37° C. Absorption is measured with the Labsystems iEMS program. • 3. Blood collection system 600 mL with needle, art P4203 (NPBI). • 4. 96 wells flat bottom micro plates (Greiner Labortechnik). Procedure
The platelets in the supernatant (PRP) are counted using a Sysmex blood cell counter and the supernatant is diluted with PPP to obtain a PRP containing 400,000±50,000 plt/μL. PRP should stabilize at RT for at least 20 min but not longer than 3 h.
150 μL PRP is pipetted into a well of the micro plate. 30 μL test compound in a range of concentrations (7 concentrations per compound) or vehicle is added and the micro plate is placed in the Labsystems iEMS reader MF at 37° C. The optical density (OD620) is then measured at 620 nm. After shaking for 2 min in the reader (1,000 rpm), the OD is measured for the second time. This is to verify the stability of the platelets (absence of spontaneous platelet aggregation). Then, 20 μL of 50 μM ADP solution is added and the OD is kinetically measured every min for 14 min at 620 nm (FIG. 1). Between two measurements, the plate is shaking for 40 seconds at 1,000 rpm. Each test compound is investigated in at least 2 experiments using PRP from different volunteers.
The mean OD at each compound concentration (including vehicle) is calculated at t=0 min and t=10 min. The percentage inhibition at each concentration is calculated using the formula: […]
The IC50 of the test compound is the concentration of the test compound at which the ADP-induced platelet aggregation is reduced by 50%. For this, the percentage inhibition values are plotted against compound concentration. Then, IC50, nH (Hill slope) and efficacy of the test compound is calculated using Graphpad Prism 3.0 (with variable slope).
Reference: Salmon, D. M. (1996) Thrombosis Research 84, 213-216.

The next series has as its system Bovine factor Xa. The experiment in a line: Determination of anti-factor Xa activity in buffer (microtiter plate method, AT-III mediated). The series is classed as biochemical. The settings on record: Kabi buffer, human AT-III. The text has this:
II. Determination of Anti-Factor Xa Activity in Buffer
(Microtiter Plate Method)
Anticoagulants can inhibit Xa directly or, like heparin, by potentiating the inhibitory activity of AT-III. Anti-Xa activity can be assessed by determination of the rate of hydrolysis of the chromogenic substrate S-2222 in the presence of AT-III. This assay is used to determine anti-Xa activity of heparinoid preparations in Kabi buffer.
Test medium: Kabi buffer.
Ref. compound: International standard heparin (11.4 anti-Xa U/mg).
Composition of the buffer: NaCl 10.17 g (174 mmol); edetate disodium dihydrate 3.26 g (9.6 mmol); tromethamine (Tris) 6.11 g (50.4 mmol); made up to 1 L with ultrapure H2O *. The pH of the solution is adjusted to 7.4 with hydrochloric acid (0.10 mol/L)
Bovine factor Xa (Kabi Diagnostica, Stockholm, Sweden) is dissolved in Kabi buffer to give a solution containing 1.5 U/mL (0.75 nKat/mL). • 3. S-2222 solution
S-2222 (Kabi Diagnostica) is dissolved in ultrapure H2O to give a solution containing 0.375 mg/mL (0.5 mmol/L). • 4. AT-III solution
Human AT-III (Kabi Diagnostica) is dissolved in Kabi buffer to give a solution containing 0.25 U/mL. A fresh solution has to be prepared daily. • 5. Standard solution of the calibration sample
Standard heparin is dissolved in Kabi buffer to give a standard solution containing approx. 0.25 anti-Xa U/mL.
Each preparation is dissolved in ultrapure H2O and diluted with Kabi buffer to the required concentrations in the range of 0.02-0.2 anti-Xa U/mL
Each test sample (0.05 mL) is pipetted into a well of a microtiter plate at RT. AT-III solution (0.05 mL) is added to each sample and the plate is shaken using a Vari-shaker.
An aliquot of Xa solution (0.05 mL) is pipetted into each well 10 min following addition of AT-III solution and the plate is shaken again. Exactly 2 min following addition of Xa solution, 0.1 mL S-2222 solution is pipetted into each well and the plate is shaken again. For all additions a 12-channel pipette is used.
The remaining amount of Xa catalyses the hydrolysis of S-2222, the rate of which is measured photometrically following incubation periods of 2 and 22 min respectively at RT. The absorbance of each sample is measured at 405 nm using a Reader Microelisa, model 310C (Organon Teknika, Oss, The Netherlands) and the increase in absorbance (ΔOD) is calculated. Each test sample is determined in duplicate. With every 10 samples, a blank (0.05 mL Kabi buffer) is included.
From an aliquot of the standard solution of the calibration sample a range of dilutions is made (dilution factor 1,3 for heparin samples). The resulting standard samples (approx. 15 samples) should contain between 0.01-0.25 anti-Xa U/mL. […]
For each sample the mean anti-Xa activity in U/mL is determined using the calibration curve. […]

As for “Methyl O-2,3-di-O-methyl-4-O-<<12-N-<N-(3-keto-benzenesulfonyl)-4-O-{4-(4-piperidinyl)-butyl}-L-tyrosine>-12-aza-3,6,9-trioxa-dodecyl>>-6-O-sulfo-alpha-D-glucopyranosyl-(1->4)-O-2,3-di-O-methyl-beta-D-glucopyranuronosyl-(1->4)-O-2,3,6-tri-O-sulfo-alpha-D-glucopyranosyl-(1->4)-O-2,3-di-O-methyl-alpha-L-idopyranuronosyl-(1>4)-3-O-methyl-2,6-di-O-sulfo-alpha-D-glucopyranoside octakis sodium salt [XIV]”, the IC50 in series [1] came out at 630 nM. Moreover, the Anti-Xa activity with Bovine factor Xa (substrate S-2222, calibrated against standard heparin) is 735 ± 107 U/mg; in the series with Bovine factor Xa (substrate S-2222, per nmol (from U/mg and Mw)), 1.68 U/nmol.
